Tests used:
[1] = test system: ADP-induced platelet aggregation in human PRP; assay: In-vitro human platelet aggregation in PRP (ADP-induced); assay type: cell-based; conditions: for HUMAN PRP % INHIBITION AT 10^-4 M: compound at 10^-4 M, human platelet-rich plasma; for IC50: human PRP, linear regression of the dose response curve
Procedure: In one assay, platelet aggregation is examined in platelet-rich plasma which also is rich in fibrinogen and other plasma proteins. The % inhibition is determined for the test compound by comparing the extent of platelet aggregation in the presence and absence of the test compound.
Healthy male or female donors who have not taken any antiplatelet drugs for at least 2 weeks were fasted for 8 hours prior to drawing blood; then 30 ml whole blood was collected using a butterfly needle and 30 cc plastic syringe with 3 ml of 0.129 M buffered sodium citrate (3.8%). The syringe was rotated carefully as blood was drawn to mix the citrate. Platelet-richplasma (PRP) was prepared by centrifugation at 100×g for 10 minutes at room temperature, allowing the centrifuge to coast to a stop without braking. The PRP was removed from the blood with a plastic pipette and placed in a plastic capped, 50 ml Corning conical sterile centrifuge tube which was held at room temperature. Platelet poor plasma (PPP) was prepared by centrifuging the remaining blood at 2000×g for 15 minutes at room temperature allowing the centrifuge to coast to a stop without braking. The PRP was adjusted with PPP to a count of 2-3×10^8 platelets per ml. 400 μl of the PRP preparation and 50 μl of the compound to be tested or saline were preincubated for 1 minute at 37° C. in a Payton aggregometer (Payton Scientific, Inc., Buffalo, N.Y.). 50 μl of adenosine 5'-diphosphate (ADP) (50 μM) was added to the cuvettes and the aggregation was monitored for 1 minute. All compounds are tested in duplicate. Results are calculated as follows: Percent of control=[(maximal OD minus initial OD of compound) divided by (maximal OD minus initial OD of control saline)]×100. The % inhibition=100-(percent of control).
The compounds tested and their activity results in % inhibition at 10^-4 M and median inhibitory concentration (IC50) were as recorded in Table 1.

[2] = test system: collagen induced rat thrombocytopenia (platelet aggregation); assay: In vivo rat thrombocytopenia (collagen induced)
Procedure: In another test, the effect of the peptide mimetic compound on collagen induced thrombocytopenia (platelet aggregation) is measured in vivo in the rat. Again, the % inhibition is determined for the test compound and compared against a saine or ethanol vehicle in the absence of the test compound.
Male rats [Charles River, CRL:CD(SD), 400-450 g] were used. The rats were anesthetized with Na pentabarbital (65 mg/kg, Vet Labs, Limited, lnc., Lenexa, Kan.). Two incisions were made to expose both jugular veins. Using an infusion pump (Harvard Apparatus, South Natick, Mass.) and a 5 cc syringe with a 19 g. butterfly, the test compound or vehicle was infused into the left jugular vein at a rate of 0.39 ml/min for 3 min. After 2 min of compound/vehicle infusion, collagen (60 μg/kg) (Helena Laboratories,Beaumont, Tex.) was injected with a one ml syringe into the right jugular vein. The body cavity was opened and the vena cava was exposed for blood sampling. One min after the collagen injection, compound infusion was stopped and blood was sampled from the vena cava (within 30 sec) with a 3 cc syringe containing […] of 4.5% EDTA/Tris (0.1 M) (pH 7.35) plus 150 μM indomethacin. Platelet rich plasma (PRP) was prepared by centrifuging the blood at 126×g for 10 min. Five μ1 of PRP was counted in 20 ml of Isoton®III in a Coulter Counter.
Percent inhibition of collagen induced aggregation was calculated by comparison of the platelet counts in animals that were treated with test compound and collagen (a) with platelet counts for animals receiving no collagen (non-aggregated control) and (b) with platelet counts for animals receiving vehicle and collagen (aggregated control).
The % inhibition of platelet aggregation in vivo and the median effective dose (ED50) of the test compounds are set forth in the following Table II.

SMILES	HUMAN PRP % INHIBITION AT 10^-4 M [1] [%]	% INHIBITION AT 1 mg/kg ([2]; 1 mg/kg, infusion into jugular vein, collagen 60 μg/kg, rat) [%]	effective dose relative to that required for equivalent inhibitory activity by Arg-Gly-Asp-(O-methyl-Tyr)-NH2 ([2]; in vivo thrombocytopenia assay, fraction of reference dose)	ED50 ([2]; infusion into jugular vein, collagen induced thrombocytopenia, rat) [mg/kg]	ED50 (orally active in rats) ([2]; oral, rats) [mg/kg]	IC50 [1] [µM]
COc1ccc(CCNC(=O)[C@H](CC(=O)O)NC(=O)CCCCCCNC(=N)N)cc1 [7-guanidino-heptanoyl-Asp--2-(4-methoxy-phenyl)ethyl amide]	43					
COc1ccc(CCNC(=O)C(CC(=O)O)NC(=O)CCCCCCCNC(=N)N)cc1 (centres unmarked) [8-guanidino-octanoyl-Asp-2-(4-methoxyphenyl)ethyl amide]	100	67.05	about one eighth	0.07	7.8	
COc1ccc(CCNC(=O)[C@H](CC(=O)O)NC(=O)CCCCCCCNC(=N)N)cc1OC [8-guanidino-octanoyl-Asp--2-(3,4-dimethoxy-phenyl)ethyl amide]	100					12
COc1ccc(CNC(=O)[C@H](CC(=O)O)NC(=O)CCCCCCCNC(=N)N)cc1 [8-guanidino-octanoyl-Asp--4-methoxybenzyl amide]	100					33
N=C(N)NCCCCCCCC(=O)N[C@@H](CC(=O)O)C(=O)N[C@@H](Cc1ccc(-c2ccccc2)cc1)C(N)=O [8-guanidino-octanoyl-Asp--(4-phenyl)-phenylalanine amide]	100					17
COc1ccc(CCNC(=O)[C@H](CC(=O)O)NC(=O)CCCCCCCCNC(=N)N)cc1 [9-guanidino-nonanoyl-Asp-2-(4-methoxyphenyl)ethyl amide]	100					27
COc1ccc(CCNC(=O)[C@H](CC(=O)O)NC(=O)CCCCCCCCCNC(=N)N)cc1 [10-guanidino-decanoyl-Asp--2-(4-methoxy-phenyl)ethyl amide]	65					70
COc1ccc(CCNC(=O)[C@H](CC(=O)O)NC(=O)CNCCCCNC(=N)N)cc1 [N--(4-guanidinobutyl)-Gly--Asp--2-(4-methoxy-phenyl)ethyl amide]	0					

— patent US4879313A, “Novel platelet-aggregation inhibitors” (Mosanto Company, priority 1988, dated 1989)
